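Values below derive from 48-hour exposures of cells grown in 96-well plates, with endpoints linearly interpolated between the two concentrations bracketing the appropriate inhibition level. Here, GI50 denotes the concentration required for 50% inhibition of growth.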 Active and inactive are the calls of the source. No stated cut-off is given here; in the data, active = GI50 up to about 1.1 µM and inactive = higher.
Assays:
Assay in all cases: NCI tumour cell line growth inhibition, 48 h
ACHN = test system: ACHN
COLO 205 = test system: COLO 205
EKVX = test system: EKVX
HCC 2998 = test system: HCC 2998
HL-60 = test system: HL-60
K562 = test system: K562
MOLT-4 = test system: MOLT-4
NCI-H226 = test system: NCI-H226
NCI-H23 = test system: NCI-H23
NCI-H522 = test system: NCI-H522
SF-295 = test system: SF-295
SK-MEL-28 = test system: SK-MEL-28
SK-OV-3 = test system: SK-OV-3
SW-620 = test system: SW-620
TK-10 = test system: TK-10
UACC-257 = test system: UACC-257
UACC-62 = test system: UACC-62
UO-31 = test system: UO-31
OVCAR-5 = test system: OVCAR-5
SK-MEL-2 = test system: SK-MEL-2

| SMILES | GI50 (ACHN) | GI50 (COLO 205) | GI50 (EKVX) | GI50 (HCC 2998) | GI50 (HL-60) | GI50 (K562) | GI50 (MOLT-4) | GI50 (NCI-H226) | GI50 (NCI-H23) | GI50 (NCI-H522) | GI50 (SF-295) | GI50 (SK-MEL-28) | GI50 (SK-OV-3) | GI50 (SW-620) | GI50 (TK-10) | GI50 (UACC-257) | GI50 (UACC-62) | GI50 (UO-31) | GI50 (OVCAR-5) | GI50 (SK-MEL-2) |
| --- | --- | --- | --- | --- | --- | --- | --- | --- | --- | --- | --- | --- | --- | --- | --- | --- | --- | --- | --- | --- |
| O=[N+]([O-])C(/C=C(\Cl)[N+](=O)[O-])=C1Nc2ccccc2N1 | 44.4 µM (inactive) | 30.5 µM (inactive) | 48.5 µM (inactive) | > 100 µM (inactive) | 45.8 µM (inactive) | 79.6 µM (inactive) | 37.1 µM (inactive) | 43.3 µM (inactive) | > 100 µM (inactive) | > 100 µM (inactive) | 35.4 µM (inactive) | 42.3 µM (inactive) | 42.4 µM (inactive) | > 100 µM (inactive) | > 100 µM (inactive) | 33.3 µM (inactive) | 33.4 µM (inactive) | 42.6 µM (inactive) | – | – |
| COc1c(Cl)cc(Cl)cc1S(=O)O | > 100 µM (inactive) | – | > 100 µM (inactive) | > 100 µM (inactive) | > 100 µM (inactive) | > 100 µM (inactive) | > 100 µM (inactive) | – | > 100 µM (inactive) | > 100 µM (inactive) | – | > 100 µM (inactive) | > 100 µM (inactive) | – | > 100 µM (inactive) | > 100 µM (inactive) | > 100 µM (inactive) | > 100 µM (inactive) | > 100 µM (inactive) | > 100 µM (inactive) |
| C=C1C(=O)C[C@@]23CCC[C@@]12CC(OCOC)C3 (stereo partly specified) | – | 3.8 µM (inactive) | 6.46 µM (inactive) | 6.35 µM (inactive) | 2.05 µM (inactive) | 3.12 µM (inactive) | 2.5 µM (inactive) | 2 µM (inactive) | 3.43 µM (inactive) | 0.387 µM (active) | 5.3 µM (inactive) | 2.69 µM (inactive) | 6.67 µM (inactive) | 2.07 µM (inactive) | – | 2.5 µM (inactive) | 2.61 µM (inactive) | 5.46 µM (inactive) | 3.61 µM (inactive) | 4.16 µM (inactive) |
| CN(O)C(=O)CCCC(=O)NCC(C)(C)CNC(=O)CCCC(=O)N(C)O | > 100 µM (inactive) | > 100 µM (inactive) | > 100 µM (inactive) | > 100 µM (inactive) | > 100 µM (inactive) | > 100 µM (inactive) | > 100 µM (inactive) | > 100 µM (inactive) | > 100 µM (inactive) | – | > 100 µM (inactive) | – | > 100 µM (inactive) | > 100 µM (inactive) | > 100 µM (inactive) | > 100 µM (inactive) | > 100 µM (inactive) | > 100 µM (inactive) | > 100 µM (inactive) | > 100 µM (inactive) |
| NC(=O)c1ncn2c1NC(=O)CC2 | – | > 100 µM (inactive) | > 100 µM (inactive) | > 100 µM (inactive) | > 100 µM (inactive) | > 100 µM (inactive) | > 100 µM (inactive) | > 100 µM (inactive) | > 100 µM (inactive) | > 100 µM (inactive) | > 100 µM (inactive) | > 100 µM (inactive) | > 100 µM (inactive) | > 100 µM (inactive) | – | > 100 µM (inactive) | > 67.8 µM (inactive) | > 100 µM (inactive) | > 100 µM (inactive) | > 100 µM (inactive) |
| C=C1CC(OC)(C(O)C(=O)N[C@H]2OCO[C@H]3C2O[C@H](C[C@@H](COC)OC)C(C)(C)C3OC)O[C@H](C)[C@@H]1C (stereo partly specified) | – | < 0.00482 µM (active) | < 0.00482 µM (active) | < 0.00482 µM (active) | < 0.00482 µM (active) | < 0.00482 µM (active) | < 0.00482 µM (active) | < 0.00482 µM (active) | < 0.00482 µM (active) | < 0.00482 µM (active) | < 0.00482 µM (active) | < 0.00482 µM (active) | – | < 0.00482 µM (active) | – | < 0.00482 µM (active) | < 0.00482 µM (active) | < 0.00482 µM (active) | < 0.00482 µM (active) | – |
| CON(C)C(=O)C(Cc1ccccc1)NC(=O)OCc1ccccc1 (stereo unspecified) | > 100 µM (inactive) | > 100 µM (inactive) | > 100 µM (inactive) | > 100 µM (inactive) | > 100 µM (inactive) | 77.1 µM (inactive) | > 100 µM (inactive) | – | > 100 µM (inactive) | 58.6 µM (inactive) | > 100 µM (inactive) | > 100 µM (inactive) | > 100 µM (inactive) | > 100 µM (inactive) | > 100 µM (inactive) | 86.1 µM (inactive) | > 100 µM (inactive) | 71.4 µM (inactive) | > 100 µM (inactive) | > 100 µM (inactive) |
| NC(=S)N/N=C1\CC(c2ccccc2)Nc2ccccc21 (stereo unspecified) | 46.3 µM (inactive) | 28.1 µM (inactive) | 55.7 µM (inactive) | – | 11 µM (inactive) | 12.2 µM (inactive) | 22.6 µM (inactive) | 39 µM (inactive) | 30.2 µM (inactive) | 25.2 µM (inactive) | 60.3 µM (inactive) | 40.1 µM (inactive) | 39.1 µM (inactive) | 30.7 µM (inactive) | 71.8 µM (inactive) | – | 34.3 µM (inactive) | 24.5 µM (inactive) | – | – |
| COc1ccc(C2=NN(c3nsc4ccccc34)C(=O)CC2)cc1 | > 100 µM (inactive) | > 100 µM (inactive) | 55.2 µM (inactive) | > 100 µM (inactive) | 39.4 µM (inactive) | 36 µM (inactive) | 44 µM (inactive) | – | > 100 µM (inactive) | – | – | > 100 µM (inactive) | – | > 100 µM (inactive) | > 100 µM (inactive) | > 100 µM (inactive) | > 100 µM (inactive) | 59.2 µM (inactive) | > 100 µM (inactive) | > 100 µM (inactive) |
| CCOP(=Nc1ccc(N(C)C)cc1)(OCC)OCC | > 100 µM (inactive) | > 100 µM (inactive) | > 100 µM (inactive) | > 100 µM (inactive) | – | > 100 µM (inactive) | > 100 µM (inactive) | – | > 100 µM (inactive) | > 100 µM (inactive) | > 100 µM (inactive) | > 100 µM (inactive) | > 100 µM (inactive) | – | > 100 µM (inactive) | > 100 µM (inactive) | > 100 µM (inactive) | > 100 µM (inactive) | > 100 µM (inactive) | > 100 µM (inactive) |
| C=CCn1c(=O)ccn(COCCO)c1=O | > 100 µM (inactive) | > 100 µM (inactive) | > 100 µM (inactive) | > 100 µM (inactive) | > 100 µM (inactive) | > 100 µM (inactive) | > 100 µM (inactive) | > 100 µM (inactive) | > 100 µM (inactive) | > 100 µM (inactive) | – | > 100 µM (inactive) | – | > 100 µM (inactive) | > 100 µM (inactive) | > 100 µM (inactive) | – | > 100 µM (inactive) | > 100 µM (inactive) | > 100 µM (inactive) |
| O=NN(CCCl)C(=O)N[C@H]1CC[C@H](C(=O)O)CC1 | – | > 100 µM (inactive) | > 100 µM (inactive) | > 100 µM (inactive) | – | > 100 µM (inactive) | 5.32 µM (inactive) | > 100 µM (inactive) | > 100 µM (inactive) | 38.6 µM (inactive) | 34.8 µM (inactive) | > 100 µM (inactive) | > 100 µM (inactive) | > 61.1 µM (inactive) | – | > 100 µM (inactive) | 20.2 µM (inactive) | > 100 µM (inactive) | > 100 µM (inactive) | > 100 µM (inactive) |
